Assays:
[1] = test system: rabbit retina; conditions: intravitreal 40 µg/50 µL, 24, 48, 72 and 168 h
Method: (§1) Baseline electroretinogram (ERG) was obtained for rabbits prior the intravitreal injection as the method described below. […] The effective dose was calculated from the previous study performed in our lab.

[2] = test system: rabbit retina; assay: Fundus imaging after intravitreal injection; assay type: in vivo, New Zealand rabbits; conditions: intravitreal 40 µg/0.05 ml, observational period of 7 days
Method: as §1
Following Electroretinogram (ERG) study, rabbit retina was focused and fundus images of both eyes were recorded using streampix software using MICRON III rodent imaging system (Phoenix Lab, USA) after subjecting them for ERG.

[3] = Stability of intravitreal formulation after thermal sterilization by autoclaving; assay type: physicochemical; conditions: 0.08% w/v in sterile saline, concentration before and after autoclaving
Text: After checking it for pH, it was filled, sealed in glass ampoules and subjected for autoclaving.

[4] = rabbit, intravitreal 40 µg/50 µL
[5] = test system: progression of retinopathy; parameters: method as in PMID 9726242; conditions: EUCLID Study, diabetic patients; cited from earlier work
[6] = in vivo; conditions: New Zealand, rabbit, 40 µg

NCCCC[C@H](N[C@@H](CCc1ccccc1)C(=O)O)C(=O)N1CCC[C@H]1C(=O)O [lisinopril]
'a' and 'b' wave amplitude of ERG compared to baseline [1]: No changes were observed
morphological changes in the retina on fundus images [2]: no significant morphological changes
stability of formulation after thermal sterilization by autoclaving [3]: stable
lisinopril concentration in retina-choroid (highest) ([4]; at 1 h): 7 µg
lisinopril concentration in the vitreous humour (highest) ([4]; at 1 h): 14.52 µg
maximum concentration in sclera ([4]; at 2 h): 6.6 µg
reduction of the risk of progression of retinopathy [5]: approximately 50%
half-life ([6]; in vivo): 12.6 h
half-life ([6]; vitreous humour): 41.5 h

Reference: article PMC6234689 (International Journal of Retina and Vitreous, 2018)
